The results in this text go back to patent US4605662A, “1-substituted pyrrolizidine derivatives and antiarrhythmic use thereof” (Suntory Ltd., priority 1982, dated 1986).

Series [1] is described as follows: 50% lethal dose (LD50) by Up and Down Method in mice, and therapeutic index. Type of series: in vivo. Particulars: mouse, in vivo; Up and Down Method; male ddy mice 18 to 22 g. The source says:
(§1) The 50% lethal doses (median lethal doses, LD50) were computed by the "Up and Down Method" (Pharmacological Experiment, compiled by Takagi and Ozawa, pp. 204, Nanzando, 1972) using male mice of the ddy strain weighing 18 to 22 g, and the ratios of the LD50 to ED50 values were expressed as the therapuetic indices, as presented in Table 1.

Series [2] has as its system ventricular flutter and fibrillation. The series can be described thus: Protection against chloroform-induced ventricular arrhythmias in mice (Lawson method), subcutaneous. Type of series: in vivo, ddy strain). Particulars: 30 min before chloroform inhalation, male ddy mice; for ED50 / ED20 / ED40: Mus musculus, sc; for ED50: read-out: ED50 (95% confidence limits), antiarrhythmic activity; for ED20: read-out: ED20, antiarrhythmic activity; for ED40: read-out: ED40, antiarrhythmic activity. On the procedure: In accordance with the method described by J. W. Lawson (Journal of Pharmacology and Experimental Therapeutics, vol. 160, pp. 22, 1968), male mice of the ddy strain weighing 16 to 30 g were allowed to inhale chloroform to induce ventricular arrhythmias. At the time when they ceased to breathe, the electrocardiogram of each animal was recorded to observe the ventricular flutter and fibrillation. The abnormalities of the ventricles observed in these animals can be prevented by pretreatment with substances which have antiarrhythmic activity. The compounds of this invention were subcutaneously injected in 4-5 different doses to groups of 29 to 40 mice. Thirty minutes later, the mice were subjected to inhalation of chloroform to induce arrhythmias, and the protection by each dose against the ventricular flutter and fibrillation were expressed as percent. […]

Series [3] deals with male mice of the ddy strain. Nature of the series: 50% lethal dose (LD50) by Up and Down Method in mice, and therapeutic index. Type of series: in vivo. Particulars: LD50/ED50.
Description: as §1

Structures are written as SMILES. Bounds are passed on as bounds.

Broadly, the LD50 is the dose at which mortality reaches 50%. Read a low LD50 as greater toxicity. The term ED50 denotes the midpoint of the dose-response relation. In turn, `Cc1ccccc1NC(=O)[C@@H]1CCN2CCC[C@@H]12` (relative stereo) registered an LD50 in series [1] of more than 500 mg/kg. The ED50 in series [2] (Litchfield and Wilcoxon) is more than 100 mg/kg. In series [2], the ED20 was 100 mg/kg.
As to `COc1cccc(NC(=O)[C@@H]2CCN3CCC[C@@H]23)c1` (relative stereo) [III], the median lethal dose (LD50) in series [1] is more than 500 mg/kg. Moreover, the ED50 in series [2] (Litchfield and Wilcoxon) is more than 100 mg/kg. For the same compound, the ED40 in series [2] was determined as 100 mg/kg.
Regarding `COc1ccccc1NC(=O)[C@@H]1CCN2CCC[C@@H]12` (relative stereo) [II], in series [1], the LD50 was more than 500 mg/kg. Also, in series [2] (Litchfield and Wilcoxon), the ED50 came to 74 mg/kg.
With `COc1ccc(NC(=O)[C@@H]2CCN3CCC[C@@H]23)cc1` (relative stereo) [IV], the LD50 in series [1] was more than 500 mg/kg. Also, the ED50 in series [2] (Litchfield and Wilcoxon) was more than 100 mg/kg. Besides, the ED20 in series [2] was determined as 100 mg/kg.
In turn, `Cc1cccc(C)c1NC(=O)[C@@H]1CCN2CCC[C@@H]12` (relative stereo) [IX] returned an LD50 in series [1] of 447 mg/kg. The “Therapeutic index (ratio of LD50 to ED50)” value in series [3] was determined as 15.4. In addition, in series [2] (Litchfield and Wilcoxon), the ED50 was found to be 29 mg/kg.
In series [1], `Cc1ccc(C)c(NC(=O)[C@@H]2CCN3CCC[C@@H]23)c1` (relative stereo) [VIII] registered an LD50 of more than 500 mg/kg. In series [2] (Litchfield and Wilcoxon), the ED50 was more than 100 mg/kg. In addition, in series [2], the ED20 was 100 mg/kg.
`Cc1cccc(NC(=O)[C@@H]2CCN3CCC[C@@H]23)c1C` (relative stereo) [VII] yielded a 50% lethal dose (LD50) in series [1] of more than 500 mg/kg. Moreover, the ED50 in series [2] (Litchfield and Wilcoxon) is more than 100 mg/kg. The ED20 in series [2] was 100 mg/kg.
With `O=C(Nc1ccccc1Br)[C@@H]1CCN2CCC[C@@H]12` (relative stereo) [VI], the LD50 in series [1] is more than 500 mg/kg. Besides, the ED50 in series [2] (Litchfield and Wilcoxon) was more than 100 mg/kg. The ED40 in series [2] worked out at 100 mg/kg.
For `O=C(Nc1ccccc1Cl)[C@@H]1CCN2CCC[C@@H]12` (relative stereo) [V], in series [1], the LD50 was determined as 263 mg/kg. Besides, in series [2] (Litchfield and Wilcoxon), the “ED50 (95% confidence limits), antiarrhythmic activity” value is given as 100 mg/kg and the ED50 was more than 100 mg/kg.
Consider `O=C(Nc1c(Cl)cccc1Cl)[C@@H]1CCN2CCC[C@@H]12` (relative stereo) [XIII], for which, in series [1], the LD50 was found to be 263 mg/kg. Further, the “Therapeutic index (ratio of LD50 to ED50)” value in series [3] is 6.92. Also, the ED50 in series [2] (Litchfield and Wilcoxon) was found to be 38 mg/kg.
Consider `COc1ccc(OC)c(NC(=O)[C@@H]2CCN3CCC[C@@H]23)c1` (relative stereo) [XII], for which the LD50 in series [1] was more than 500 mg/kg. Also, in series [2] (Litchfield and Wilcoxon), the ED50 was more than 100 mg/kg. Moreover, the ED40 in series [2] stood at 100 mg/kg.
On to `O=C(Nc1c(Br)cccc1Br)[C@@H]1CCN2CCC[C@@H]12` (relative stereo) [XIV], for which the LD50 in series [1] was found to be 468 mg/kg. In addition, the “Therapeutic index (ratio of LD50 to ED50)” value in series [3] is reported as 10.88. In series [2] (Litchfield and Wilcoxon), the ED50 is 43 mg/kg.
In turn, `CCc1cccc(CC)c1NC(=O)[C@@H]1CCN2CCC[C@@H]12` (relative stereo) [XI] displayed an LD50 in series [1] of 244 mg/kg. In addition, the “Therapeutic index (ratio of LD50 to ED50)” value in series [3] is 6.24. For the same compound, the ED50 in series [2] (Litchfield and Wilcoxon) amounted to 38 mg/kg.
For `Cc1cc(C)c(NC(=O)[C@@H]2CCN3CCC[C@@H]23)c(C)c1` (relative stereo) [XV], the LD50 in series [1] worked out at 394 mg/kg. Moreover, the ED50 in series [2] (Litchfield and Wilcoxon) was more than 100 mg/kg. The ED20 in series [2] amounted to 100 mg/kg.
Regarding `Cc1cc(C)cc(NC(=O)[C@@H]2CCN3CCC[C@@H]23)c1` (relative stereo) [X], in series [1], the LD50 is more than 500 mg/kg. The ED50 in series [2] (Litchfield and Wilcoxon) came out at 100 mg/kg. The ED20 in series [2] is more than 100 mg/kg.
